Data: US11530317B2, “Deep eutectic solvent compositions” (SABIC GLOBAL TECHNOLOGIES B.V., priority 2017, dated 2022)
Values after ≈ are worked out from the molar mass of the structure shown. Like-named read-outs stand apart in the source and are kept apart here.

How the values were obtained:
[1] = Quantification of solubility by visual inspection for undissolved material; format: physicochemical; conditions: for Enhancement factor: solubility in ChCl-urea DES relative to aqueous solution; for Solubility in water: obtained in this work
Procedure: Solubility was determined through adding an amount of CB[n] n=6, 7 or 8 or x-CD (where x=α, β or γ) to 1 mL of solvent followed by vortexing and heating the mixture to 80° C. The mixture was inspected visually to determine the presence of undissolved material. The mixture was then cooled to room temperature and the mixture re-examined to determine the presence of any undissolved material.

[2] = UV/vis probing of host-guest binding in ChCl-urea DES
Procedure: Methylviologen dichloride (2.0 mg, […], 1 eq.) was dissolved in ChCl:urea (1 mL) by vortexing and heating to 60° C. The methylviologen radical was formed by addition of a significant excess of reducing agent, sodium hydrosulfite, approx. 20 molar equivalents. To this solution CB[7] (9.0 mg, […], 1 eq.) was added and dissolved through stirring at 60° C. A sample of this solution (0.1 mL) was added to ChCl-urea (1 mL) and measured by UV/vis.
Methylviologen dichloride (2.0 mg, […], 1 eq.) was dissolved in ChCl:urea (1 mL) by vortexing and heating to 60° C. The methylviologen radical was formed by addition of a significant excess of reducing agent, sodium hydrosulfite, approx. 20 molar equivalents. To this solution CB[8] (10.1 mg, […], 1 eq. or 20.2 mg, 15.6 mmol, 2 eq.) was added and dissolved through stirring at 60° C. 0.1 ml of this solution were added to 1 ml of ChCl-urea and measured by UV/vis.
To probe the binding of γ-CD to MV^.+ a high concentration of MV^.+ was required on account of the lower binding constants of CDs compared to CB[n]. A solution of MV^.+ (15 mg/mL) was prepared (as described for CB[7] above) and to this γ-CD (170 mg, 2 equivalents) was added.

[3] = Photochemical switching of MV in DES (solar light simulator, then air purge); format: physicochemical; conditions: photogenerated radical in DES, purging with air
Procedure: DES MV^2+ solution (1.5 mL) in a quartz cuvette (1 cm path length, Hellma) was placed in a water bath held at 25° C. and irradiated by a solar light simulator (Newport Oriel, 100 mW cm^−2) equipped with an air mass 1.5 global filter (AM 1.5 G). IR irradiation was filtered with a water filter (10 cm path length). Samples were thermostatted at 25° C.
Stock solutions of MV^2+ in each of the three DES were prepared as follows: MV^2+ 2Cl^− (10 mg, 0.04 mmol) was added each individual DES (ChCl-urea, ChCl-glycerol and ChCl-ethylene glycol) (10 mL) separately and dissolved by heating to 80° C. for 30 min to give a colorless solution.
MV^2+ in DES (1.5 mL) was transferred to a quartz cuvette and placed in a water bath held at 25° C. in front of a solar light simulator. The sample was removed from the simulator and UV/vis spectra recorded at various time intervals to monitor the formation of MV^+..
The resultant blue MV^+. solutions were then purged with air (30 mL min^−1) using a mass flow controller (Brooks). UV/vis spectra were recorded at time intervals during the purging to monitor the disappearance of the MV^+. species.

[4] = Cyclic voltammetry cycling stability of MV in DES in air; format: physicochemical; conditions: DES (ChCl-urea, ChCl-ethylene glycol, ChCl-glycerol), no degassing
Procedure: Electrochemical measurements were performed in air at 40° C. using a PalmSens EmStat potentiostat. A three-electrode cell was used, equipped with a glassy carbon working electrode (3 mm diameter, BASi), a Ag/AgCl reference electrode (BASi) and a platinum mesh counter electrode (Sigma-Aldrich). The working electrode was cleaned before experiments by mechanically polishing in alumina (Buehler, Micropolish, 1 μm) on a polishing cloth (Buehler, Microcloth).
Cyclic voltammetry (CV) was recorded at 0.1 V s^−1 scan rate and 5.0 mM MV^2+ 2Cl^− concentration. FcMeOH (5 mM) was used as an internal reference. Analyte solutions were prepared by heating the respective DES with MV^2+ 2Cl^− and FcMeOH to 80° C. for 30 min.
None of the solutions were degassed before measurement nor was any attempt made to exclude oxygen or air.

[5] = Purging of MV^+. solutions (DES or water) with air, monitored by UV/vis at 609 nm; format: physicochemical
[6] = Long term UV/vis measurement of MV^+. in ChCl-urea DES exposed to air; format: physicochemical
Procedure: MV^2+ 2Cl^− (1 mg, 0.0039 mmol) was added to ChCl-urea DES (10 mL) and dissolved by heating to 80° C. for 30 min to give a 0.39 mM solution. The solution was then heated to 130° C. for 2 h during which time it had turned blue. A portion (1.5 mL) of the resulting blue solution was removed, placed in a cuvette and a UV/vis spectrum was recorded.
Spectra were recorded across a 100 h period in an open cuvette.
The solution was not degassed or covered in any way nor was any attempt to keep O2 out made.

[7] = Solubility of methylviologen dichloride in ChCl-urea; format: physicochemical; conditions: ChCl-urea DES
From the text: However, it should be noted that other anions, such as [PF6]^− and I^− were also found to be soluble and may also be used.

[8] = values taken from Sabadini et al.; cited from earlier work
[9] = ChCl-urea DES, room temperature

Compound	DES solubility (maximum solubility) [1, 9]	maximum solubility ([1]; ChCl-TsOH DES) [mg/mL]	maximum solubility ([1]; ChCl-urea DES) [mg/mL]	maximum solubility ([1]; H2O) [mg/mL]	maximum solubility ([1]; HCl (3M)) [mg/mL]	maximum solubility ([1]; NaCl (0.1M)) [mg/mL]	maximum solubility ([1]; Phosphate buffer (pH = 7.0)) [mg/mL]	Enhancement factor [1]	Solubility in water ([1]; water) [mg/mL]	host-guest binding with MV^.+ by UV/vis [2]	other results
O=C1N2CN3C(=O)N4CN5C(=O)N6CN7C(=O)N8CN9C(=O)N%10CN1C1C2N2CN%11C(=O)N(CN%12C(=O)N(CN%13C(=O)N(CN%14C(=O)N(CN1C2=O)C%10C9%14)C8C7%13)C6C5%12)C4C3%11 (stereo not drawn) [CB[5]]	approx. 25 mg/mL	–	–	–	–	–	–	–	–	–	–
O=C1N2CN3C(=O)N4CN5C(=O)N6CN7C(=O)N8CN9C(=O)N%10CN%11C(=O)N%12CN1C1C2N2CN%13C(=O)N(CN%14C(=O)N(CN%15C(=O)N(CN%16C(=O)N(CN%17C(=O)N(CN1C2=O)C%12C%11%17)C%10C9%16)C8C7%15)C6C5%14)C4C3%13 (stereo not drawn) [CB[6]]	1.0 mg/mL	1.0	1.0	<0.1	15.0	4.6	17.4	10	<0.1	–	–
O=C1N2CN3C(=O)N4CN5C(=O)N6CN7C(=O)N8CN9C(=O)N%10CN%11C(=O)N%12CN%13C(=O)N%14CN1C1C2N2CN%15C(=O)N(CN%16C(=O)N(CN%17C(=O)N(CN%18C(=O)N(CN%19C(=O)N(CN%20C(=O)N(CN1C2=O)C%14C%13%20)C%12C%11%19)C%10C9%18)C8C7%17)C6C5%16)C4C3%15 (stereo not drawn) [CB[7]]	17 mg/mL	18.0	17.0	4.4	100	14.8	19.8	3.9	4.4 (≈ 3.78 mM)	binding of MV^.+ is occurring	maximum solubility ([1]; ChCl-urea (1:2), room temperature): 15.0 mg cm^−3; maximum solubility in water ([1]; water): 4.4 mg cm^−3
C[n+]1ccc(-c2cc[n+](C)cc2)cc1.[Cl-].[Cl-] [MV, N,N′-dimethyl-4,4′-bipyridinium dichloride]	–	–	–	–	–	–	–	–	–	–	time to revert to colourless [3]: ≤ 150 s; electrochemical cycling stability [4]: ≥ 100 cycles; radical lifetime upon purging with air ([5]; ChCl-ethylene glycol DES (36 cP)): shortest radical lifetime; radical lifetime upon purging with air ([5]; ChCl-glycerol DES (376 cP)): 900 min; radical lifetime upon purging with air ([5]; ChCl-urea DES (632 cP)): 400 min; time to complete quenching ([5]; aqueous solution, purging with air 0.1 mL min^−1): less than 4 min; persistence of radical species ([5]; in DES, purging with air 30 mL min^−1): 2 to 15 h; change in absorbance at 609 nm ([6]; ChCl-urea DES, exposed to air, 100 h period): no change in absorbance at 609 nm; time solutions remain blue ([6]; DES solutions prepared and stored in air): > 6 months; forecast lifetime ([6]; in DES, in air): > 6 months; solubility in ChCl-urea [7]: soluble
OC[C@H]1O[C@@H]2O[C@H]3[C@H](O)[C@@H](O)[C@@H](O[C@H]4[C@H](O)[C@@H](O)[C@@H](O[C@H]5[C@H](O)[C@@H](O)[C@@H](O[C@H]6[C@H](O)[C@@H](O)[C@@H](O[C@H]7[C@H](O)[C@@H](O)[C@@H](O[C@H]1[C@H](O)[C@H]2O)O[C@@H]7CO)O[C@@H]6CO)O[C@@H]5CO)O[C@@H]4CO)O[C@@H]3CO [α-CD]	>500 mg/mL	–	–	–	–	–	–	>3.5	–	–	Solubility in water [8]: 129.5 mg/mL (≈ 133 mM)
OC[C@H]1O[C@@H]2O[C@H]3[C@H](O)[C@@H](O)[C@@H](O[C@H]4[C@H](O)[C@@H](O)[C@@H](O[C@H]5[C@H](O)[C@@H](O)[C@@H](O[C@H]6[C@H](O)[C@@H](O)[C@@H](O[C@H]7[C@H](O)[C@@H](O)[C@@H](O[C@H]8[C@H](O)[C@@H](O)[C@@H](O[C@H]1[C@H](O)[C@H]2O)O[C@@H]8CO)O[C@@H]7CO)O[C@@H]6CO)O[C@@H]5CO)O[C@@H]4CO)O[C@@H]3CO [β-CD]	>1000 mg/mL	–	–	–	–	–	–	>55	–	–	CD content of the solution at that solubility ([1]; ChCl-urea DES): ~50 wt %
OC[C@H]1O[C@@H]2O[C@H]3[C@H](O)[C@@H](O)[C@@H](O[C@H]4[C@H](O)[C@@H](O)[C@@H](O[C@H]5[C@H](O)[C@@H](O)[C@@H](O[C@H]6[C@H](O)[C@@H](O)[C@@H](O[C@H]7[C@H](O)[C@@H](O)[C@@H](O[C@H]8[C@H](O)[C@@H](O)[C@@H](O[C@H]9[C@H](O)[C@@H](O)[C@@H](O[C@H]1[C@H](O)[C@H]2O)O[C@@H]9CO)O[C@@H]8CO)O[C@@H]7CO)O[C@@H]6CO)O[C@@H]5CO)O[C@@H]4CO)O[C@@H]3CO [γ-CD]	>1000 mg/mL	–	–	–	–	–	–	>4	–	binding behaviour similar to the CB[8] system occurred	Solubility in water [8]: 249.2 mg/mL (≈ 192 mM); CD content of the solution at that solubility ([1]; ChCl-urea DES): ~50 wt %
Cucurbit[8]uril [CB[8]]	2 mg/mL	3.1	2.0	<0.2	1.8	0.1	0.3	10	<0.2	formation of a 2:1 complex	–
